Experimental data published in the CheMixHub ionic liquid set.

Test: xn = mol fraction of the nth substance listed

CCn1cc[nH+]c1.[Cl-] + OCC(O)CO
Settings	viscosity [mPa·s]
303.15 K, 100 kPa, x1 = 0.333	65.7

CCCC[n+]1ccn(C)c1.O=S(=O)([O-])C(F)(F)F + O
Settings	viscosity [mPa·s]
343.15 K, 101 kPa, x2 = 0.1939	10.55

[Cl-].[Cl-].[Co+2] + CCCCCCCC[N+](CCCCCCCC)(CCCCCCCC)CCCCCCCC.[Br-] + CCCCCCCC(=O)O
296.1 K, 101.3 kPa
Settings	viscosity [mPa·s]
x2 = 0.2857, x1 = 0.1429	2615
x2 = 0.4, x1 = 0.2	5700
x2 = 0.4286, x1 = 0.1429	7600

CCCC[N+]1(C)CCCC1.N#C[N-]S(=O)(=O)C(F)(F)F + N#C[N-]S(=O)(=O)C(F)(F)F.[Li+]
101 kPa, frequency 0 MHz, x2 = 0
Settings	electrical conductivity [S/m]
308 K	0.644
313 K	0.752

101 kPa, x2 = 0
Settings	viscosity [mPa·s]
308 K	33.6
313 K	28.6

CCCCCCCCn1cc[n+](C)c1.F[B-](F)(F)F + COC(C)=O
298.15 K, 101 kPa
Settings	viscosity [mPa·s]
x2 = 0.199	100
x2 = 0.5512	13.82
x2 = 0.801	2.29
x2 = 0.9515	0.63

F[P-](F)(F)(F)(F)F.[Li+] + CC[n+]1ccn(C)c1.O=S(=O)([N-]S(=O)(=O)C(F)(F)F)C(F)(F)F
electrical conductivity [S/m], 101 kPa
Settings	x2 = 0.7088	x2 = 0.729	x2 = 0.8022	x2 = 0.8765	x2 = 0.9623
288.15 K	–	0.124	0.208	0.431	0.52
298.15 K	0.195	0.222	0.355	0.651	0.775
333.15 K	0.816	0.865	1.17	1.72	1.95

CCCC[N+]1(C)CCCC1.O=S(=O)([N-]S(=O)(=O)C(F)(F)F)C(F)(F)F + CC1COC(=O)O1
Settings	electrical conductivity [S/m]	viscosity [mPa·s]
253.15 K, 101 kPa, x2 = 0.11	0.026	–
253.15 K, 101 kPa, x2 = 0.21	0.04	–
253.15 K, 101 kPa, x2 = 0.47	0.108	–
253.15 K, 101 kPa, x2 = 0.63	0.183	–
253.15 K, 101 kPa, x2 = 0.79	0.27	–
253.15 K, 101 kPa, x2 = 0.89	0.283	–
258.15 K, 101 kPa, x2 = 0.16	0.052	–
258.15 K, 101 kPa, x2 = 0.26	0.073	–
258.15 K, 101 kPa, x2 = 0.58	0.199	–
263.15 K, 101 kPa, x2 = 0.05	0.053	–
263.15 K, 101 kPa, x2 = 0.37	0.14	–
263.15 K, 101 kPa, x2 = 0.53	0.225	–
268.15 K, 101 kPa, x2 = 0.68	0.418	–
273.15 K, 101 kPa, x2 = 0	0.109	–
273.15 K, 101 kPa, x2 = 0.26	0.195	–
273.15 K, 101 kPa, x2 = 0.42	0.281	–
273.15 K, 101 kPa, x2 = 0.74	0.535	–
278.15 K, 101 kPa, x2 = 0.26	0.253	–
278.15 K, 101 kPa, x2 = 0.95	0.504	–
283.15 K, 101 kPa, x2 = 0.05	0.212	–
283.15 K, 101 kPa, x2 = 0.16	0.257	–
283.15 K, 101 kPa, x2 = 0.37	0.382	–
283.15 K, 101 kPa, x2 = 0.58	0.557	–
283.15 K, 101 kPa, x2 = 0.68	0.654	–
283.15 K, 101 kPa, x2 = 0.89	0.698	–
283.15 K, 101 kPa, x2 = 0.95	0.566	–
283.15 K, 101 kPa, x2 = 0.97	0.458	–
288.15 K, 101 kPa, x2 = 0.26	0.384	–
288.15 K, 101 kPa, x2 = 0.47	0.547	–
288.15 K, 101 kPa, x2 = 0.74	0.787	–
288.15 K, 101 kPa, x2 = 0.79	0.817	–
293.15 K, 100 kPa, x2 = 0.8	0.93	7.8
293.15 K, 101 kPa, x2 = 0	0.303	86.1
293.15 K, 101 kPa, x2 = 0.53	0.689	21.23
293.15 K, 101 kPa, x2 = 0.79	0.91	7.77
298.15 K, 101 kPa, x2 = 0.32	0.581	28.28
298.15 K, 101 kPa, x2 = 0.37	–	25.45
298.15 K, 101 kPa, x2 = 0.42	0.678	22.81
298.15 K, 101 kPa, x2 = 0.63	0.892	12.82
303.15 K, 101 kPa, x2 = 0.21	0.574	29.14
303.15 K, 101 kPa, x2 = 0.42	0.771	19
303.15 K, 101 kPa, x2 = 0.63	1.001	10.87
303.15 K, 101 kPa, x2 = 0.74	1.091	7.36
303.15 K, 101 kPa, x2 = 0.84	1.099	4.68
308.15 K, 101 kPa, x2 = 0.37	0.816	17.76
313.15 K, 101 kPa, x2 = 0.21	0.75	20.27
313.15 K, 101 kPa, x2 = 0.32	0.858	16.62
313.15 K, 101 kPa, x2 = 0.47	1.036	12.28
313.15 K, 101 kPa, x2 = 0.79	1.3	4.64
313.15 K, 101 kPa, x2 = 0.84	1.271	3.75
313.15 K, 101 kPa, x2 = 0.97	0.721	–
318.15 K, 101 kPa, x2 = 0	–	29.72
318.15 K, 101 kPa, x2 = 0.05	–	25.14
318.15 K, 101 kPa, x2 = 0.47	–	10.64
318.15 K, 101 kPa, x2 = 0.89	–	2.77

100 kPa, frequency 0.003 MHz
Settings	electrical conductivity [S/m]
297.1 K, x1 = 0.8	0.396
299.8 K, x1 = 0.4	0.804
299.9 K, x1 = 0.8	0.413
310.9 K, x1 = 0.8	0.527
313.5 K, x1 = 0.4	0.931
313.7 K, x1 = 0.2	1.15
313.7 K, x1 = 0.8	0.552
316.2 K, x1 = 0.2	1.17
319.3 K, x1 = 0.6	0.727
322.3 K, x1 = 0.9	0.559
327.6 K, x1 = 0.6	0.788
330.3 K, x1 = 0.2	1.26
330.6 K, x1 = 0.9	0.636
338.9 K, x1 = 0.2	1.31
338.9 K, x1 = 0.8	0.768
341.4 K, x1 = 0.8	0.788
341.6 K, x1 = 0.6	0.886
346.8 K, x1 = 0.4	1.18
349.7 K, x1 = 0.4	1.21

CCCC[N+]1(C)CCCC1.O=S(=O)([N-]S(=O)(=O)C(F)(F)F)C(F)(F)F + CCOC(=O)OCC
100 kPa
Settings	electrical conductivity [S/m]	viscosity [mPa·s]
293.15 K, x1 = 0.1001	0.343	1.84
293.15 K, x1 = 0.2	0.526	3.84
293.15 K, x1 = 0.4998	0.42	18.14
293.15 K, x1 = 0.8934	0.23	72.5
303.15 K, x1 = 0.2	0.648	3.18
303.15 K, x1 = 0.25	0.731	–
308.15 K, x1 = 0.4998	0.705	11.73
308.15 K, x1 = 0.8934	0.454	38.8
313.15 K, x1 = 0.1001	0.465	1.22
313.15 K, x1 = 0.25	0.9	–
323.15 K, x1 = 0.1001	0.539	1
323.15 K, x1 = 0.8006	0.793	18.67
